# Laboratory results as given in patent publication US10204206B2, “Modelling of the action of an optical fiber in photodynamic therapy treatment, and assistance in the planning of said treatment” (STEBA MAOR SA, priority 2010, dated 2019).
# Tested on: prostate
# Assay: Clinical trials of photodynamic therapy of prostate cancer: action radius of the optical fiber fitted to the actual necrotic volume
# Type: in vivo, patients
# Details: 28 clinical trials; 4 mg/kg; optical fiber at 763 nm; insertion lengths 15 to 40 mm; accuracy 1.08 mm
# Source text: In this study, the Applicant has validated its modeling method for the use of an optical fiber with specific wavelength of 763 nm, in association with the WST11 photosensitive agent, for the treatment of prostate cancer. It is easily understood that the principles of modeling, as well as those of assistance in planning resulting from this modeling, can be used for other combinations of optical fibers and photosensitive agents, and applied to the treatment of other organs.
# In reference to FIG. 2, the modeling method 100 thus includes a preliminary step 110 of constructing a database of results from clinical trials conducted previously on a plurality of patients using the same photosensitive material at the same dosage, such as 4 mg/kg of WST11, associated with at least one optical fiber that we seek to model. This construction consists of storing one record per patient in the database with at least the following elements: […]
# Once steps 120 and 130 have been carried out, the only thing left to do is to determine, in a step 140 referenced in FIG. 2, the action radius R of an optical fiber by correlation, for each patient in the database, with the total theoretical action volume calculated with the measured volume of the actual necrotic area. […]
compound,measurement,value
CC[C@H]1c2cc3[n-]c(c(CC(=O)OC)c4nc(cc5[n-]c(cc(n2)[C@@H]1C)c(C(C)=O)c5C)[C@@H](C)[C@@H]4CCC(=O)[O-])c(C(=O)NCCS(=O)(=O)[O-])c3C.[H+].[H+].[Pd+2] [WST11],average action radius R of an optical fiber (value for which theoretical volume was closest to the volume of the actual necrotic area),7.49 mm
